Test results from patent US20150209281A1, “LIPOSOMAL COMPOSITIONS OF EPOXYKETONE-BASED PROTEASOME INHIBITORS” (ONYX THERAPEUTICS, INC., priority 2012, published 2015).
In brackets after ≈: the same amount, converted by molar mass. Where two headings read alike, the source gives them in different places.

Assay: Aqueous solubility of carfilzomib
Assay type: physicochemical

solubility (30 °C, simulated gastric fluid, thermodynamic from solid, 0.1M HCl aqueous solution, ~pH 1, read-out: Approximate carfilzomib solubility at pH 1): ~1800 µg/mL (≈ 2500 µM)
solubility (aqueous medium, read-out: aqueous solubility): < 1 µg/mL
Compound: CC(C)C[C@H](NC(=O)[C@H](CCc1ccccc1)NC(=O)CN1CCOCC1)C(=O)N[C@@H](Cc1ccccc1)C(=O)N[C@@H](CC(C)C)C(=O)[C@@]1(C)CO1 [carfilzomib]
